From paper PMC10166890, “Screening for DAX1/EWS‐FLI1 functional inhibitors identified dihydroorotate dehydrogenase as a therapeutic target for Ewing's sarcoma” (Cancer Medicine, 2023)
Entries after “also recorded” stand apart in the source; their conditions may differ. Where two headings read alike, the source gives them in different places.

Tests used:
[1] = test system: A‐673 cells; assay: Cell viability assay (XTT), A‐673 cells; assay type: cell-based, human; conditions: for GI50: Homo sapiens, A673; for Effect of DHODH overexpression on cell growth inhibitory effect in A‐673 cells: pcDNA3.1hygro(+)‐hDHODH transfected
Experimental: (§1) AsPC‐1, A‐673, and TC‐71 cells were seeded in 96‐well plates (800 cells/well for AsPC‐1, 2000 cells/well for A‐673, and 400 cells/well for TC‐71) and cultured overnight. Vehicle (DMSO) or a test compound diluted with the medium was then added to the wells (final DMSO concentration was 0.3%), and 72 h later, 2,3‐bis[2‐methoxy‐4‐nitro‐5‐sulfophenynl]‐2H‐tetrazolium‐5‐carboxanilide inner salt (XTT) reagent (Roche Diagnostics, Mannheim, Germany) was added to the medium. After 3‐h incubation at 37°C, the formation of the formazan dye was determined by measuring absorbance at 490 and 650 nm using a SpectraMax 340PC system (Molecular Devices, Sunnyvale, CA, USA).

[2] = test system: DAX1; assay: DAX1 reporter assay (KJMGER8/pAGal9p4‐hDAX1 cells, luciferase); assay type: cell-based, human; conditions: for IC50: Homo sapiens; for Inhibitory effect on DAX1 reporter activity: overnight treatment
Experimental: pAGal9‐hDAX1 and pAPPRE×10‐Luc + were transfected into KJMGER8 cells by electroporation using a Gene Pulser (Bio‐Rad Laboratories, Hercules, CA, USA), and clones stably expressing the DAX1 and luciferase reporter genes under the control of PPRE were selected. The obtained clone was termed KJMGER8/pAGal9p4‐hDAX1. KJMGER8/pAGal9p4‐hDAX1 cells (1.8 × 10^4 cells/well) were seeded in 384‐well white plates (Greiner Japan, Tokyo, Japan) and cultured in RPMI1640‐IPTSG medium containing 10 nM 17β‐estradiol (E2; Sigma‐Aldrich), dissolved in ethanol, with test compounds at concentration ranges of 0.01 to 10,000 nM or vehicle (dimethyl sulfoxide [DMSO]). The final DMSO concentration was ≤0.3%, and the ethanol concentration was 0.1%. The next day, Blight‐Glo Luciferase Assay Reagent (Promega, Madison, WI, USA) was added to the medium. The luciferase activity was measured using a TopCount NXT system (PerkinElmer, Waltham, MA, USA). IC50 values were calculated using XLfit version 4 (ID Business Solutions, Surrey, UK).
A DAX1 reporter assay system was constructed with the estrogen‐inducible Namalwa cell (KJMGER8 cell) by co‐transfection with pAGal9‐hDAX1 and pAPPRE×10‐Luc+.[18] In the obtained cell line KJMGER8/pAGal9p4‐hDAX1, DAX1 expression is induced by E2 treatment, and the expressed DAX1 increases luciferase expression. Reporter activity was increased by E2 treatment as expected (Figure S2). […] Using this DAX1 reporter assay system, small‐molecule compounds in an in‐house library were screened to obtain DAX1 inhibitors, and K‐234 was identified (Figure 1).
pAGal9-hDAX1 and pAPPRE×10-Luc+ were transfected into KJMGER8 cells by electroporation using a Gene Pulser (Bio-Rad Laboratories, Hercules, CA, USA), and clones stably expressing the DAX1 and luciferase reporter genes under the control of PPRE were selected. The obtained clone was termed KJMGER8/pAGal9p4-hDAX1. KJMGER8/pAGal9p4-hDAX1 cells (1.8×10^4 cells/well) were seeded in 384-well white plates (Greiner Japan, Tokyo, Japan) and cultured in RPMI1640-IPTSG medium containing 10 nM 17β-estradiol (E2; Sigma-Aldrich), dissolved in ethanol, with test compounds at concentration ranges of 0.01 to 10000 nM or vehicle (dimethyl sulfoxide [DMSO]). The final DMSO concentration was ≤0.3%, and the ethanol concentration was 0.1%. The next day, Blight-Glo Luciferase Assay Reagent (Promega, Madison, WI, USA) was added to the medium. The luciferase activity was measured using a TopCount NXT system (PerkinElmer, Waltham, MA, USA). IC50 values were calculated using XLfit version 4 (ID Business Solutions, Surrey, UK)

[3] = molecular target: T1, DHODH (Rattus norvegicus, UniProt Q63707); assay: DHODH inhibition with rat liver mitochondria; assay type: biochemical
T1 construct: from tissue; host or cells: rat liver mitochondria
T1 sequence (Q63707 whole entry): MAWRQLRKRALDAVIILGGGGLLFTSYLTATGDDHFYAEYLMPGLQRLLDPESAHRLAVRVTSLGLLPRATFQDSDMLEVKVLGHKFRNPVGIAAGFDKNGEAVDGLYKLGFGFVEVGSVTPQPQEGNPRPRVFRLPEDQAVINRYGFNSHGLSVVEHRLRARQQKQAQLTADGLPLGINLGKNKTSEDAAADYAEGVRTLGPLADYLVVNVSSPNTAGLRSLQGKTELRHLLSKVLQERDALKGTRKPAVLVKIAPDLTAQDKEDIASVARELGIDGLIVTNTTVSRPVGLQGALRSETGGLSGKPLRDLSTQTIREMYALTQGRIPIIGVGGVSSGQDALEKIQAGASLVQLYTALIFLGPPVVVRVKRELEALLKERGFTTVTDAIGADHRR

[4] = molecular target: T2, DHODH (Mus musculus, UniProt O35435); assay: DHODH inhibition with mouse liver mitochondria; assay type: biochemical; conditions: mouse liver mitochondria; read-out: DHODH IC50 Mouse
T2 construct: IC50 value for the mouse liver mitochondrial fraction; from tissue; host or cells: mouse liver mitochondria
T2 sequence (O35435 whole entry): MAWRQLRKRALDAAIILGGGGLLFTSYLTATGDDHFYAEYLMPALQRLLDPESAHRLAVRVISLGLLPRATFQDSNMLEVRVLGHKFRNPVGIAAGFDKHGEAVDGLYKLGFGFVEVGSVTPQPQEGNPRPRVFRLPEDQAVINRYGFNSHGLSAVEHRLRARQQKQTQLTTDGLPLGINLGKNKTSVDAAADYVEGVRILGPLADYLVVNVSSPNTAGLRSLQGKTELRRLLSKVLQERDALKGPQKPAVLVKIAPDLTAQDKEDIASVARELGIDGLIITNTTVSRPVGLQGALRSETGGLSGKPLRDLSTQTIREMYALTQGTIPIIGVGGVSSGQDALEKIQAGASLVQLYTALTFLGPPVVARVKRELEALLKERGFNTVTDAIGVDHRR

[5] = test system: EWS‐FLI1‐related genes; assay: EWS‐FLI1‐related gene expression in A‐673 cells (RT‐qPCR); assay type: cell-based, human; conditions: 48 h; for Expression of DAX1, IGFBP3, and DKK1 in A‐673 cells / Effect of uridine addition on up‐regulation of DAX1, IGFBP3, and DKK1: 1000 nmol/L; for Effect of uridine addition on up‐regulation of DAX1, IGFBP3, and DKK1: uridine 100 μM
Experimental: Total RNA was extracted using the RNeasy Plus Mini kit (Qiagen, Valencia, CA, USA) according to the manufacturer's protocol. cDNA was synthesized from 1 μg of total RNA using a SuperScript VILO cDNA synthesis kit (Thermo Fisher Scientific). Real‐time PCR was carried out using TaqMan Fast Universal PCR Master Mix (Thermo Fisher Scientific).
FIGURE 3 EWS‐FLI1‐related gene expression after treatment with DAX1 inhibitors and knockdown of FLI1 in A‐673 cells. (A) A‐673 cells were treated with siRNA of FLI1 (siFLI‐1, siFLI‐2) or control siRNA (control siRNA1, control siRNA2) for 24 h, and EWS‐FLI1‐related genes were analyzed (details of siRNA are shown in Table S2). The gene expression was normalized by the GAPDH expression and normalized by the mean of control siRNA‐treated samples. Each bar represents the mean of duplicate measurements. (B) A‐673 cells were treated with PTC299 at 1000 nM for 48 h, and EWS‐FLI1‐related genes were analyzed. Gene expression was normalized by the GAPDH expression and by DMSO‐treated samples. Each bar represents the mean of duplicate measurements.
FIGURE 6 Influence of DHODH overexpression on Ewing's sarcoma cell growth and the EWS‐FLI1‐regulated gene expression. (A) pcDNA3.1hygro(+)‐hDHODH was transfected into A‐673 cells. The A‐673 cells with DHODH or control A‐673 cells were treated with indicated concentrations of PTC299 and KF20444 for 72 h, and cell viability was measured. Each plot represents the mean of triplicate measurements. (B) A‐673 cells with or without uridine (100 μM) were treated with indicated concentrations of PTC299 for 72 h, and cell viability was measured. Each plot represents the mean of triplicate measurements. (C) A‐673 cells with or without uridine (100 μM) were treated with PTC299 and KF20444 at 1000 nmol/L for 48 h, and the EWS‐FLI1‐related gene expression was evaluated. The expression was normalized by GAPDH and by DMSO‐treated samples. (D) KJMGER8/pAGal9p4‐hDAX1 cells with or without uridine (100 μM) were treated with indicated concentrations of PTC299 and K‐733 overnight, and the luciferase activity was measured. Each plot represents the mean of quadruplicate measurements.

[6] = molecular target: T3, DHODH (Homo sapiens, UniProt Q02127); assay: DHODH inhibition assay, A‐673 mitochondria fraction (orotic acid production, LCMSMS); assay type: biochemical
T3 construct: The mitochondria fraction was isolated from A‐673 cells using Q proteome Mitochondria Isolation kit; endogenous in cells; host or cells: A-673 cells, mitochondria fraction
T3 sequence (Q02127 whole entry): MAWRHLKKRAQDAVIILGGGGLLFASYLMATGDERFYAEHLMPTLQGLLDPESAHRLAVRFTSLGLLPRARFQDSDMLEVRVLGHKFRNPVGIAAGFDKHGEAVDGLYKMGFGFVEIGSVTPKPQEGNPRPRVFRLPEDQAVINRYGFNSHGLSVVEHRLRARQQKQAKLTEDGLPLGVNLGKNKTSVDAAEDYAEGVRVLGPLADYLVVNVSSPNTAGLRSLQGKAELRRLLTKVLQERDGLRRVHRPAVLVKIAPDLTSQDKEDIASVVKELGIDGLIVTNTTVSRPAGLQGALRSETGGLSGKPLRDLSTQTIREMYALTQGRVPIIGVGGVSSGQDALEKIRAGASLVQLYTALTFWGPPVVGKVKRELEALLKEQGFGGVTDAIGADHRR
Experimental: The mitochondria fraction was isolated from A‐673 cells using Q proteome Mitochondria Isolation kit (QIAGEN, Hilden, Germany). The protein concentration of the fraction was determined using the DC‐protein assay kit (Bio‐Rad Laboratories, Hercules, CA, USA) with bovine serum albumin (Sigma‐Aldrich) as the standard. […] The reaction was quenched by adding 120 μL of 3 μM 5‐fluoroorotic acid acetonitrile solution. These samples were then centrifuged at 5000 g for 5 min to precipitate proteins, and the supernatant was collected. The samples were diluted 10‐fold with 70% acetonitrile‐water and subjected to liquid chromatography with tandem mass spectrometry (LCMSMS). The analyte was then separated on a hydrophilic interaction chromatography column (PC‐HILIC; 5 μm, 4.6 mm I.D. × 50 mm; Osaka Soda, Osaka, Japan). LCMSMS detection was performed by electrospray ionization in negative ion mode.

[7] = test system: CADO‐ES1 cells; assay: Cell viability, CADO‐ES1 cells; assay type: cell-based, human; conditions: 120 h, EWS‐ERG fusion
Experimental: (§2) FIGURE 2 K‐234 influences the growth of Ewing's sarcoma. (A) Ewing's sarcoma‐derived A‐673 and TC‐71 cells and human pancreas adenocarcinoma‐derived AsPC‐1 cells as a control were treated with indicated concentrations of K‐234 for 72 h, and cell viability was measured. Each value represents the mean of duplicate measurements. (B) Ewing's sarcoma with type 2‐fusion gene‐derived SK‐ES‐1, RD‐ES, and MHH‐ES‐1 cells and Ewing's sarcoma with EWS‐ERG fusion gene‐derived CADO‐ES1 cells were treated with indicated concentrations of K‐234 for 120 h, and cell viability was measured. Each value represents the mean of duplicate measurements.

[8] = test system: RD‐ES cells; assay: Cell viability, RD‐ES cells; assay type: cell-based, human; conditions: 120 h, type 2 fusion
Experimental: as §2

[9] = test system: SK‐ES‐1 cells; assay: Cell viability, SK‐ES‐1 cells; assay type: cell-based, human; conditions: 120 h, type 2 fusion
Experimental: as §2

[10] = test system: TC‐71 cells; assay: Cell viability assay (XTT), TC‐71 cells; assay type: cell-based, human; conditions: 72 h
Experimental: as §1

[11] = test system: MHH‐ES‐1 cells; assay: Cell viability, MHH‐ES‐1 cells; assay type: cell-based, human; conditions: 120 h, type 2 fusion
Experimental: as §2

[12] = 50% growth inhibition concentration, A‐673 cells
[13] = KJMGER8, Table S3, read-out: DAX1 reporter IC50
[14] = KJMGER8/pAGal9p4‐hDAX1 cells, 10 nM E2, overnight, read-out: IC50 for inhibition of DAX1 reporter activity

## Cc1c(-c2ccc(-c3ccccc3F)cc2)nc2ccc(F)cc2c1C(=O)O [Brequinar]
[1]; [12]
  GI50: 115 nM
[2]; [13]
  IC50: 73 nM

## O=C(O)c1c2c(nc3ccc(F)cc13)-c1ccc(-c3ccccc3F)cc1CCC2 [KF20444]
[1]; 72 h
  Cell viability of A‐673 cells: reduced the cell viability
  Effect of DHODH overexpression on cell growth inhibitory effect in A‐673 cells: weakened; also recorded: partially attenuated
[1]; [12]
  GI50: 22.2 nM
[3]
  IC50: 34.1 nM
[2]; [13]
  IC50: 13.2 nM
[4]
  IC50: 6.1 nM
[5]
  Expression of DAX1, IGFBP3, and DKK1 in A‐673 cells: up‐regulated
  Effect of uridine addition on up‐regulation of DAX1, IGFBP3, and DKK1: abrogated
[6]; Table S3, read-out: DHODH IC50
  IC50: 16.8 nM

## O=C(Oc1ccccc1)N1CCc2c([nH]c3ccc(Cl)cc23)C1c1ccc(Cl)cc1 (stereo not drawn) [K‐234, phenyl 6‐chloro‐1‐(4‐chlorophenyl)‐1,3,4, 9‐tetrahydro‐2H‐pyrido[3,4‐b]indole‐2‐carboxylate]
[7]
  Cell viability of CADO‐ES1 cells: significantly reduced the viability
[8]
  Cell viability of RD‐ES cells: significantly reduced the viability
[1]; 72 h
  Cell viability of A‐673 cells: significantly reduced the viability
[2]; [14]
  IC50: 94.5 nM
[9]
  Cell viability of SK‐ES‐1 cells: significantly reduced the viability
[10]
  Cell viability of TC‐71 cells: significantly reduced the viability
[11]
  Cell viability of MHH‐ES‐1 cells: significantly reduced the viability

## CC(=O)N1CCc2c([nH]c3ccc(Br)cc23)C1c1ccccc1 (stereo not drawn) [NSC 665564]
[1]; [12]
  GI50: 119 nM
[2]; [13]
  IC50: 666 nM
[6]; Table S3, read-out: DHODH IC50
  IC50: 3.49 nM

## COc1ccc([C@H]2c3[nH]c4ccc(Cl)cc4c3CCN2C(=O)Oc2ccc(Cl)cc2)cc1 [PTC299, 4‐chlorophenyl (S)‐6‐chloro‐1‐(4‐methoxyphenyl)‐1,3,4,9‐tetrahydro‐2H‐pyrido[3,4‐b]indole‐2‐carboxylate]
[1]; 72 h
  Cell viability of A‐673 cells: decreased the viability
  Effect of knockdown and overexpression of DAX1 on the reduction in viability of A‐673 cells: no marked effect
  Effect of DHODH overexpression on cell growth inhibitory effect in A‐673 cells: significantly attenuated; also recorded: completely canceled
[1]; [12]
  GI50: 5.11 nM
[1]; uridine 100 μM, 72 h
  Effect of uridine addition on growth inhibitory effect in A‐673 cells: completely blocked; also recorded: completely canceled
[3]
  IC50: 1520 nM
[2]; [14]
  IC50: 33 nM
[2]; uridine 100 μM, overnight
  Effect of uridine addition on inhibition of DAX1 reporter activity: completely abrogated
[10]
  Cell viability of TC‐71 cells: decreased the viability
[4]
  IC50: 103 nM
[5]; 1000 nM
  DAX1 expression in A‐673 cells: slightly induced
[5]
  Expression of DAX1, IGFBP3, and DKK1 in A‐673 cells: up‐regulated
  Effect of uridine addition on up‐regulation of DAX1, IGFBP3, and DKK1: abrogated
[6]; read-out: IC50 for orotic acid production through DHODH
  IC50: 4.13 nM

## CC(=O)O[C@H]1C(=O)[C@@]2(C)[C@H]([C@H](OC(=O)c3ccccc3)[C@]3(O)C[C@H](OC(=O)[C@H](O)[C@@H](NC(=O)c4ccccc4)c4ccccc4)C(C)=C1C3(C)C)[C@]1(OC(C)=O)CO[C@@H]1C[C@@H]2O [Paclitaxel]
[2]
  Inhibitory effect on DAX1 reporter activity: did not inhibit
[2]; listed as paclitaxel
  Inhibitory effect on DAX1 reporter activity: did not show a remarkable inhibitory effect

## C/C(O)=C(\C#N)C(=O)Nc1ccc(C(F)(F)F)cc1 [Teriflunomide]
[1]; Figure 7 legend
  GI50: > 10000 nM
[2]; [13]
  IC50: 8500 nM
